Data reported in US6339045B1, “N-(unsubstituted or substituted)-4-substituted-6-(unsubstituted or substituted)phenoxy-2-pyridinecarboxamides or thiocarboxamides, processes for producing the same, and herbicides” (Kureha Kagaku Kogyo Kabushiki Kaisha, priority 1995, dated 2002).

What was measured:
[1] = test system: velvetleaf (Abutilon theophrasti); experiment: Herbicidal effect by foliage and soil treatment; assay type: in vivo; conditions: 10 g ai/10a, evaluated after 14 days
In short: (§1)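 Read-out: rated growth inhibition relative to non-treated plants 14 days after spraying. Young plants (cotyledon to two leaves) received a foliage-and-soil spray of compound in aqueous Tween 20 at a controlled rate, greenhouse at 19–25 °C.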

[2] = test system: field bindweed (Convolvulus arvensis); experiment: Herbicidal effect by foliage and soil treatment; assay type: in vivo; conditions: 10 g ai/10a, evaluated after 14 days
In short: as §1

[3] = test system: redroot pigweed (Amaranthus retroflexus); experiment: Herbicidal effect by foliage and soil treatment; assay type: in vivo; conditions: 10 g ai/10a, evaluated after 14 days
In short: as §1

[4] = test system: black nightshade (Solanum nigrum); experiment: Herbicidal effect by foliage and soil treatment; assay type: in vivo; conditions: 10 g ai/10a, evaluated after 14 days
In short: as §1

[5] = test system: common chickweed (Stellaria media); experiment: Herbicidal effect by foliage and soil treatment; assay type: in vivo; conditions: 10 g ai/10a, evaluated after 14 days
In short: as §1

[6] = test system: sicklepod (Cassia obtusifolia); experiment: Herbicidal effect by foliage and soil treatment; assay type: in vivo; conditions: 10 g ai/10a, evaluated after 14 days
In short: as §1

[7] = test system: wild chamomile (Matricaria chamomilla); experiment: Herbicidal effect by foliage and soil treatment; assay type: in vivo; conditions: 10 g ai/10a, evaluated after 14 days
In short: as §1

[8] = test system: cleavers (Galium aparine); experiment: Herbicidal effect by foliage and soil treatment; assay type: in vivo; conditions: 10 g ai/10a, evaluated after 14 days
In short: as §1

[9] = test system: common blackjack (Bidens pilosa); experiment: Herbicidal effect by foliage and soil treatment; assay type: in vivo; conditions: 10 g ai/10a, evaluated after 14 days
In short: as §1

[10] = test system: kediock (Sinapis arvensis); experiment: Herbicidal effect by foliage and soil treatment; assay type: in vivo; conditions: 10 g ai/10a, evaluated after 14 days
In short: as §1

[11] = test system: ivyleafspeedwell (Veronica hederaefolia); experiment: Herbicidal effect by foliage and soil treatment; assay type: in vivo; conditions: 10 g ai/10a, evaluated after 14 days
In short: as §1

Structure (SMILES) | melting point [°C] | herbicidal activity rating, AT (Abutilon theophrasti) [1] | herbicidal activity rating, CA (Convolvulus arvensis) [2] | herbicidal activity rating, AR (Amaranthus retroflexus) [3] | herbicidal activity rating, SN (Solanum nigrum) [4] | herbicidal activity rating, SM (Stellaria media) [5] | herbicidal activity rating, CO (Cassia obtusifolia) [6] | herbicidal activity rating, MC (Matricaria chamomilla) [7] | herbicidal activity rating, GA (Galium aparine) [8] | herbicidal activity rating, BP (Bidens pilosa) [9] | herbicidal activity rating, SA (Sinapis arvensis) [10] | herbicidal activity rating, VH (Veronica hederaefolia) [11]
CC[S+]([O-])CCNC(=O)c1cc(OC)cc(Oc2cccc(C(F)(F)F)c2)n1 (stereo not drawn) [Compound I-69, N-{2-(ethylsulfinyl)ethyl}-4-methoxy-6-{3-(trifluoromethyl)phenoxy}-2-pyridine carboxamide] | 77 to 79 | 5 (percentage of weeds killed was not less than 80%) | 4 (percentage of weeds killed was not less than 60% and less than 80%) | 5 (percentage of weeds killed was not less than 80%) | 5 (percentage of weeds killed was not less than 80%) | 4 (percentage of weeds killed was not less than 60% and less than 80%) | 5 (percentage of weeds killed was not less than 80%) | 3 (percentage of weeds killed was not less than 40% and less than 60%) | 5 (percentage of weeds killed was not less than 80%) | 3 (percentage of weeds killed was not less than 40% and less than 60%) | 5 (percentage of weeds killed was not less than 80%) | 5 (percentage of weeds killed was not less than 80%)
CCS(=O)(=O)CCNC(=O)c1cc(OC)cc(Oc2cccc(C(F)(F)F)c2)n1 [Compound I-68, N-{2-(ethylsulfonyl)ethyl}-4-methoxy-6-{3-(trifluoromethyl)phenoxy}-2-pyridine carboxamide] | 92 to 94 | 5 (percentage of weeds killed was not less than 80%) | 4 (percentage of weeds killed was not less than 60% and less than 80%) | 5 (percentage of weeds killed was not less than 80%) | 5 (percentage of weeds killed was not less than 80%) | 4 (percentage of weeds killed was not less than 60% and less than 80%) | 5 (percentage of weeds killed was not less than 80%) | 2 (percentage of weeds killed was not less than 20% and less than 40%) | 5 (percentage of weeds killed was not less than 80%) | 4 (percentage of weeds killed was not less than 60% and less than 80%) | 5 (percentage of weeds killed was not less than 80%) | 5 (percentage of weeds killed was not less than 80%)
CCCCNC(=O)c1cc(OC)cc(Oc2cccc(C(F)(F)F)c2)n1 [Compound I-36] |  | 4 (percentage of weeds killed was not less than 60% and less than 80%) | 5 (percentage of weeds killed was not less than 80%) | 5 (percentage of weeds killed was not less than 80%) | 5 (percentage of weeds killed was not less than 80%) | 5 (percentage of weeds killed was not less than 80%) | 5 (percentage of weeds killed was not less than 80%) | 5 (percentage of weeds killed was not less than 80%) | 5 (percentage of weeds killed was not less than 80%) | 5 (percentage of weeds killed was not less than 80%) | 5 (percentage of weeds killed was not less than 80%) | 5 (percentage of weeds killed was not less than 80%)
COc1cc(Oc2cccc(C(F)(F)F)c2)nc(C(=O)NC2CC2)c1 [Compound I-48, N-cyclopropyl-4-methoxy-6-{3-(trifluoromethyl)phenoxy}-2-pyridine carboxamide] |  | 5 (percentage of weeds killed was not less than 80%) | 5 (percentage of weeds killed was not less than 80%) | 5 (percentage of weeds killed was not less than 80%) | 5 (percentage of weeds killed was not less than 80%) | 5 (percentage of weeds killed was not less than 80%) | 5 (percentage of weeds killed was not less than 80%) | 5 (percentage of weeds killed was not less than 80%) | 5 (percentage of weeds killed was not less than 80%) | 4 (percentage of weeds killed was not less than 60% and less than 80%) | 5 (percentage of weeds killed was not less than 80%) | 5 (percentage of weeds killed was not less than 80%)
COc1cc(Oc2cccc(C(F)(F)F)c2)nc(C(=O)NCC#N)c1 [Compound I-84, N-{(2-cyano)methyl}-4-methoxy-6-{3-(trifluoromethyl)phenoxy}-2-pyridine carboxamide] |  | 5 (percentage of weeds killed was not less than 80%) | 4 (percentage of weeds killed was not less than 60% and less than 80%) | 5 (percentage of weeds killed was not less than 80%) | 5 (percentage of weeds killed was not less than 80%) | 4 (percentage of weeds killed was not less than 60% and less than 80%) | 5 (percentage of weeds killed was not less than 80%) | 2 (percentage of weeds killed was not less than 20% and less than 40%) | 5 (percentage of weeds killed was not less than 80%) | 5 (percentage of weeds killed was not less than 80%) | 5 (percentage of weeds killed was not less than 80%) | 5 (percentage of weeds killed was not less than 80%)
